This is an account of results in US20130039857A1, “METHODS OF SUPPRESSING CANCER, INCREASING WEIGHT LOSS AND/OR INCREASING INSULIN SENSITIVITY” (priority 2010, published 2013).

The subject of assay [1] is Wild-type mice. The experiment in a line: Whole-body indirect calorimetry, wild-type mice. It counts as in vivo, mouse. The text has this: (§1) Eight- to ten-week-old male C57BL6/J, pp59^fyn null mice and their controls were obtained from The Jackson Laboratory (Bar Harbor, Me.) and housed in a facility equipped with a 12 hr light/dark cycle. Animals were fed ad libitum a standard chow diet (Research Diets, New Brunswick, N. J.) containing 75.9% (Kcal) carbohydrates, 14.7% protein, and 9.4% fat. All studies were approved by and performed in compliance with the guidelines of the Yeshiva University Institutional Animal Care and Use Committee (IACUC).
(§2) Oxygen and carbon dioxide consumption were simultaneously determined by Oxymax open-circuit indirect calorimetry system (eight-cage system) (Columbus Instruments). Animals were allowed to acclimatize for two complete light and dark cycles (48 hr), and SU6656 (2-oxo-3-(4,5,6,7-tetrahydro-1H-indol-2-ylmethylene)-2,3-dihydro-1H-indole-5-sulfonic acid dimethylamide) injections were performed at the beginning of the light cycle the following day. Measurements were subsequently taken 12 hr following the injection. Data were analyzed as the average of 1 hr measurements for each mouse. Instrument settings were as follows: gas flow rate, 0.6 1/min; sample flow rate, 0.5 1/min; settle time, 120 s; measure time, 60 s.
Loss of Fyn kinase protein in the conventional Fyn knockout mice leads to increased lipid utilization and energy expenditure, particularly in the fasting/resting state (Bastie et al., 2007). To examine the effects of acute Fyn inhibition, the in vivo effects of the pharmacological selective Src family kinase inhibitor SU6656 was investigated. Wild-type mice were placed into metabolic chambers and allowed to acclimatize for 48 hr. Intraperitoneal injection of SU6656 or vehicle was performed at the beginning of the light cycle (fasting/resting state), and the respiratory quotient (RQ), oxygen consumption (VO2), energy expenditure (EE), and physical activity were monitored for the following 12 hr. […] Oxygen consumption and energy expenditure were similar in both groups before the injection and were decreased during the light period as the animals were resting with reduced basal metabolism.

Assay [2] is described as follows: Total body mass and magnetic resonance imaging (fat and lean mass), wild-type mice. It counts as in vivo, mouse. Here is the method:
Total body mass (g) was recorded before (T=0) and 12 hr (T=12 hr) after the SU6656 injection. To determine fat and lean mass, animals were placed in a clear plastic holder without anesthesia or sedation and inserted into the EchoMRI-3-in-1™ System from Echo Medical Systems (Houston, Tex., USA). Total body fat and lean mass were measured before (T=0) and after (T=12 hr) after the injection.
As mice generally consume 80% of their calories during the dark cycle and have a limited food intake during the light cycle, they undergo a diurnal pattern of weight gain and loss as shown by the decreased body mass at T=12 hr in the vehicle-treated mice. […] To determine whether the lowered RQ in the mice treated with SU6656 was directly due to increased skeletal muscle fatty acid oxidation, red soleus and white gastrocnemius muscles were isolated 3 hr following the vehicle or SU6656 injection and incubated with ^14C-palmitate. The oxidation of ^14C-palmitate to ^14CO2 was increased 25% and 33%, respectively, in the soleus and the gastrocnemius of the SU6656-treated mice relative to vehicle treated controls (FIGS. 3A and 3B). The SU6656-stimulated increase in fatty acid oxidation occurred concomitantly, with an approximate 3-fold increased AMPK α subunit T172 phosphorylation and increased ACC S79 (ACC1) and S221 (ACC2) phosphorylation levels (FIGS. 3C and 3D).

Assay [3] deals with red soleus and white gastrocnemius muscles. The experiment in a line: Fatty acid oxidation in isolated muscles (14C-palmitate to 14CO2). To be noted: relative to vehicle treated controls. It counts as in vivo, mouse. Here is the method:
Animals received a single intraperitoneal injection of SU6656 or vehicle in the morning. Mice were sacrificed by cervical dislocation 3 hr after the injection. Skeletal muscles (red soleus and white gastrocnemius) were rapidly removed and preincubated for 10 min in oxygenated (95% O2, 5% CO2) Earle's solution (Invitrogen, Carlsbad, Calif.) supplemented with 5 mMD-glucose, 250 μM palmitate, and 0.5% BSA plus either 10 μM SU6656 or an equal volume of DMSO. Tissues were incubated for 45 min in the same buffer containing […] palmitate containing 1 μCi/ml [1-^14C] palmitate tracer (Amersham, Piscataway, N. J.) bound to 0.5% BSA. Incubations were carried out under an atmosphere of 95% O2/5% CO2 at 30° C. in glass vials (Kontes, Vineland, N.J.) equipped with a center well filled with 200 μl of 2N NaOH (trapping agent). At the end of the incubation, perchloric acid was added through the cap to a concentration of […], and vials were incubated for 3 hr at 30° C. with moderate shaking. The ^14CO2 produced was determined by scintillation counting of NaOH using the UniScintBD scintillation liquid (National Diagnostics, Atlanta, Ga.).
As mice generally consume 80% of their calories during the dark cycle and have a limited food intake during the light cycle, they undergo a diurnal pattern of weight gain and loss as shown by the decreased body mass at T=12 hr in the vehicle-treated mice. […]

Assay [4] has as its system AMPK α subunit T172 phosphorylation. The experiment in a line: Western blot of phospho-T172 AMPK in white gastrocnemius. It counts as in vivo, mouse. To be noted: SU6656 4 mg/kg, 3 hr after injection, vs vehicle. Here is the method:
(§3) Animals were injected with vehicle or SU6656 (4 mg/kg) at the beginning of the light cycle. They were anesthetized and sacrificed by cervical dislocation 3 hr after the injection. Tissues were rapidly freeze clamped in liquid nitrogen and stored at […]. Protein preparation and blotting were performed as described below. Tissues were ground in liquid nitrogen and homogenized in a buffer containing 50 mM Tris (pH 7.4), 1% glycerol, and 1% Triton X-100 supplemented with protease inhibitor (Complete Mini, Roche Pharmaceuticals, Nutley, N. J.). Homogenates were centrifuged for 30 min at 14,000 rpm at 4° C., and supernatants were collected. Protein concentration was determined with the BCA™ Protein Assay (Thermo Scientific, Rockford, Ill.).
(§4) Protein samples (40 μg) were separated on 8% or 10% reducing polyacrylamide gels and transferred onto Immobilon-P polyvinylidene difluoride membranes. […] Alternatively, immunoblots were incubated with IRDye800CW goat antimouse (H+L) or IRDye680 goat anti-rabbit (H+L) secondary antibodies, and signal was detected with the Odyssey® Infrared Imaging System (Li-COR Biotechnology, Lincoln, Nebr.).

Assay [5] concerns ACC S79 (ACC1) and S221 (ACC2) phosphorylation. The experiment in a line: Western blot of phospho-ACC in white gastrocnemius. It counts as in vivo, mouse. To be noted: SU6656 4 mg/kg, 3 hr after injection, vs vehicle. Here is the method: as §3, §4
Background: Immunoblotting shows a protein as a band on a membrane.

In assay [6] the test system is Fyn knockout mice. The experiment in a line: Whole-body indirect calorimetry and body mass, Fyn knockout mice. It counts as in vivo, mouse.
Excerpt: as §1, §2
To address this issue, the metabolic effect of SU6656 on wild type versus Fyn knockout mice was investigated. […]

Assay [7] deals with LKB1 subcellular localization in C2C12 muscle cell line. The experiment in a line: GFP-LKB1 subcellular localization in C2C12 myotubes. It counts as cell-based. More on the design: dose or concentration left out as unconfirmed. To be noted: C2C12 myotubes transfected with pEGFP-LKB1. Here is the method:
FIGS. 4A-4F. Fyn Kinase Activity Regulates LKB1 Subcellular Distribution. (4A) C2C12 myotubes were transfected with pEGFP-LKB1 and incubated with vehicle or SU6656 ([…]) for 2 hr. Cells were fixed and mounted with proQ diamond with DAPI solution. (4B) Shown is percentage of cells with pEGFPLKB1 signal detected in the cytoplasm. (4C) C2C12 myotubes were cotransfected with pEGFP-LKB1 and pcDNA3-Fyn-KD or pcDNA3-Fyn-CA. Cells were fixed and incubated with the mouse Fyn monoclonal antibody. Immunofluorescence was performed using the Alexa Fluor 594 Anti-mouse IgG. (4D) Percentage of C2C12 cells with pEGFP-LKB1 signal detected in the cytoplasm. Data are representative of n=5 experiments. (4E) Fully differentiated 3T3L1 adipocytes were cotransfected with pcDNA3-LKB1 and pcDNA3-Fyn-KD or pcDNA3-Fyn-CA. […] (4F) Percentage of 3T3L1 cells with LKB1 signal detected in the cytoplasm. […]
The ratio of cytosolic and nuclear LKB1 was quantified using the Image J software (National Institutes of Health). […]
C2C12 myotubes were cotransfected with 50 μg pEGFP-C2-LKB1 or pcDNA3-Flag-LKB1 or pcDNA3-Flag-LKB1 mutants and 200 μg of the indicated pcDNA3-Fyn constructs. […] Cells were imaged using a confocal fluorescence microscope (TCS SP5 confocal; Leica Microsystems). […]

The subject of assay [8] is LKB1. The experiment in a line: Endogenous LKB1 immunofluorescence in skeletal muscle in vivo. On the set-up: species or system mouse. To be noted: wild-type mice treated with SU6656.
Assay [9] addresses Fyn kinase (Homo sapiens, UniProt P06241). On the set-up: dose or concentration left out as unconfirmed. To be noted: cited from earlier work.
The mark [10] stands for this setting: SU6656 4 mg/kg intraperitoneal, light period, 12 hr following injection.

Chain of Fyn kinase (P06241 1-534 isoform P06241-2): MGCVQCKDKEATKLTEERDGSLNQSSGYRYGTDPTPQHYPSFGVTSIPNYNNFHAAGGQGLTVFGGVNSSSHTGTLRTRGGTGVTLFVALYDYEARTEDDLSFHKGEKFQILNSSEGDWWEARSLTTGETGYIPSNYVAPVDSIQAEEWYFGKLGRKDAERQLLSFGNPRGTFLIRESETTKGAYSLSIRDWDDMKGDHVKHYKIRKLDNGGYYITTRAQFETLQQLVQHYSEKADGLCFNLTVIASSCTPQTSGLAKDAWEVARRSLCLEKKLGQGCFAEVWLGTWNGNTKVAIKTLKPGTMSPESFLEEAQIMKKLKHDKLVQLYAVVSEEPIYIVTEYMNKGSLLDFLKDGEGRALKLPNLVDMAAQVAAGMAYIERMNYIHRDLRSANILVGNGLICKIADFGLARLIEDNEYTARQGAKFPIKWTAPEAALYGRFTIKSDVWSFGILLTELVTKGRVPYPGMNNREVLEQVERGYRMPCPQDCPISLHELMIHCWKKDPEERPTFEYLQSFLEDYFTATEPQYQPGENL

In the case of `CN(C)S(=O)(=O)c1ccc2c(c1)C(=Cc1cc3c([nH]1)CCCC3)C(=O)N2` [SU6656, 2-oxo-3-(4,5,6,7-tetrahydro-1H-indol-2-ylmethylene)-2,3-dihydro-1H-indole-5-sulfonic acid dimethylamide], the “decrease of respiratory quotient (RQ)” value in [1] (SU6656 4 mg/kg intraperitoneal at beginning of light cycle, vs vehicle, particularly first 3 hr after injection) is given as “more pronounced”. In addition, in assay [1] (setting [10]), the “energy expenditure (EE) elevation vs vehicle” value came to 14% and the “oxygen consumption (VO2) elevation vs vehicle” value stood at 14%. Further, the physical activity entry in assay [1] (SU6656 4 mg/kg, dark or light cycle) is reported as “without any alteration”. The “respiratory quotient (RQ), wild-type controls of Fyn knockout mice” value in [1] (three-month-old wild-type mice, SU6656 vs vehicle, 12 hr following injection) is given as “lower RQ”. Also, in assay [2] (12 hr after SU6656 injection), the “total weight loss greater than vehicle-treated group” value turned out to be 40%. Further, in assay [2] (T=12 hr, SU6656-treated vs vehicle-injected control animals), the fat mass entry was “significantly reduced”. Moreover, the lean mass result in assay [2] (T=12 hr, vehicle vs SU6656-injected mice) is recorded as “no significant difference”. Also, the “increase in oxidation of 14C-palmitate to 14CO2, soleus” value in [3] (red soleus isolated 3 hr after injection) is 25%. In [3] (white gastrocnemius isolated 3 hr after injection), the “increase in oxidation of 14C-palmitate to 14CO2, gastrocnemius” value worked out at 33%. Moreover, the “increased AMPK α subunit T172 phosphorylation” value in [4] was approximately 3 fold. Also, the “ACC S79 (ACC1) and S221 (ACC2) phosphorylation levels” value in assay [5] was “increased”. Also, in assay [6] (after SU6656 treatment), the “body mass or physical activity in Fyn null mice” value is reported as “no alterations”. Moreover, the “rate of change or RQ level in Fyn knockout mice” value in assay [6] (three-month-old Fyn knockout mice, SU6656 vs vehicle) is “no significant effect”. In addition, the “cells with redistribution of LKB1 into the cytoplasm” value in assay [7] is “approximately 65%”. Besides, in [8], the “LKB1 signal in the cytoplasm of muscle cells” value was “increased LKB1 signal”. Besides, the Fyn kinase activity result in [9] is reported as “sufficient to inactivate”.
